Experimental findings from patent US5770688A, “Method and composition for the treatment of mammalian HIV infection” (GSF-Forschungszentrum fur Umwelt und Gesundheit GmbH, priority 1989, dated 1998) are described below.

Data set [1] in a line: disappearance of melittin from culture medium / uptake by cells. Format: in vitro ADME. From the text:
(§1) This means, in essence, that the effect of melittin (Seq. ID NO:1) on the virus is to attack the virus before it is released from an infected cell although it is possible that a reduction in virus numbers may be possible during and immediately after the addition of melittin to a cell culture or otherwise. […] At this point in time, melittin is absent from the culture. […] This observation excludes any effect in the experiments to be explained by a direct effect of melittin on "cell free" virus, that is, virus released into the supernatant.
(§2) These characteristics appear to be due to the specific structure of the melittin amphiphilic helix. […] In this regard, treatment was at cultivation start, and measurement of infectivity was seven days post treatment. As was discussed earlier, maximum virus concentration in cultures of this type is not achieved for five days after cultivation. As should be understood and the conclusions which the inventors have drawn from same is that if the reduced viral infectivity seven days post treatment were only due to direct effects of melittin on the virus, then in that event, the melittin or an active fragment would have to be present as late as five days post treatment. […] Moreover, and if the reduction and supernatant infectivity was partly due to reduced virus production as opposed to incorrect virus assembly or destruction of newly synthesized virion, then, in that event, this should be reflected by reduced amounts of viral proteins within the cells and/or in their supernatants of the melittin treated cultures. To determine whether this hypothesis is correct the inventors chose the P24 marker as a marker for viral protein production. […] However, following fourteen hours of incubation with melittin, there is a marked reduction of P24 within the cells as well as in the supernatant (down to 60%).

The test system of another data set is P24. The data set is described as follows: P24 production in melittin treated HIV infected cultures. The class given is cell-based.
Excerpt: as §1, §2

A further data set has as its system HIV. Kind of data set: relative infectious nature of culture supernatant, indirect immunoperoxidase staining of LC5 cells. Format: cell-based. The method, then: Referring more particularly to FIGS. 1-4, melittin (Seq. ID NO:1) and its specified analogues were tested for their effect on HIV-infected T-lymphoma cells. In this regard the following cell lines were employed in the testing: KE37-1 (uninfected) and KE37-1/111S (infected with HTLV-111β). These infected cells were incubated for a period of seven days under test conditions at a temperature of 37° C. and in the presence of 5% CO2. A culture medium of RPMI 1640 (GIBCO) was employed and was further supplemented with 10% fetal calf serum which contained approximately 100 units of penicillin, 100μ of streptomycin, and approximately 0.25μ fungizone (Amphotericin B) per milliliter. […] A first test was conducted for purposes of determining the relative cell concentration as a function of the number of HIV infected cells present by employing an MTT test. The MTT test was carried out in microtiter plates according to T. Mosmann, "Rapid Colorimetric Assay for Cellular Growth and Survival: Application to Proliferation and Cytotoxicity Assays," Journal of Immunological Methods, v. 65 (1983), pp. 55-63. The MTT test was slightly modified: 10 μl of an MTT solution (5 mg/ml MTT dissolved in PBS, sterilized by filtration; MTT is 3-(4,5-Dimethylthiazole-2-yl)-2,5-diphenyltetrazolimbromide) were added to every well. […] The optical density (OD) of the solution was determined at=600 nm. […]

Take “Gly-Ile-Gly-Ala-Val-Leu-Lys-Val-Leu-Thr-Thr-Gly-Leu-Pro-Ala-Leu-Ile-Ser-Trp-Ile-Lys-Arg-Lys-Arg-Gln-Gln-Amide [melittin]”: the “absorption by the cell” value in data set [1] (after introduction to the culture) is “absorbed by the cell within hours after introduction to the culture”. For the same substance, in data set [1] (cell culture), the half-life of melittin came out at 19 h. Also, the “melittin in the medium” value in data set [1] (two hours after addition to the culture) is “not measurable in the medium two hours after addition to the culture”. The “cellular vs supernatant P24 reduction” value in the data set with P24 is “cellular P24 seems to be reduced sooner and more strongly than supernatant P24”. Moreover, the “P24 within the cells as well as in the supernatant” value with P24 (fourteen hours of incubation, down to, 840 min) is 60%. In the data set with P24 (three hours of incubation), the “reduction of cellular and supernatant P24” value was “only a slight reduction”. Further, in the data set with P24 (totally infected (clone) cultures), the “virus protein synthesis (P24 formation within the cell)” value is on record as “virus protein synthesis is reduced”. Further, the “ability of the cells to infect (INF%)” value in the data set on HIV (2.5 μg per ml, FIG. 2) is “revert substantially back to zero”. Besides, the supernatant infectivity result in the data set on HIV (single treatment at cultivation start, subtoxic concentrations, seven days post treatment) is given as “supernatant infectivity was reduced”.
